# Assay results: ChEMBL document CHEMBL1629667, “Activities of dalbavancin against a worldwide collection of 81,673 gram-positive bacterial isolates” (2009)
# Columns and labels:
# Format in all cases: functional
# Enterococcus faecium [1] = test: Antimicrobial activity against Enterococcus faecium VanB assessed as growth inhibition at 2 ug/ml by broth microdilution method
# Enterococcus faecium [2] = test: Antimicrobial activity against Enterococcus faecium VanB assessed as growth inhibition at 0.5 ug/ml by broth microdilution method
# Enterococcus faecalis [3] = test: Antimicrobial activity against Enterococcus faecalis VanA assessed as growth inhibition at 4 ug/ml by broth microdilution method
# Staphylococcus aureus [4] = test: Antimicrobial activity against Oxacillin-susceptible Staphylococcus aureus assessed as percent susceptible isolate by broth microdilution method
# Enterococcus faecium [5] = test: Antimicrobial activity against Enterococcus faecium VanA assessed as growth inhibition at 2 ug/ml by broth microdilution method
# Enterococcus faecium [6] = test: Antimicrobial activity against Enterococcus faecium VanB assessed as growth inhibition at 0.06 ug/ml by broth microdilution method
# Enterococcus faecalis [7] = test: Antimicrobial activity against Enterococcus faecalis VanB assessed as growth inhibition at 0.06 ug/ml by broth microdilution method
# Enterococcus faecium [8] = test: Antimicrobial activity against Enterococcus faecium VanB assessed as growth inhibition at =<[…] ug/ml by broth microdilution method
# [9] = tested on: Streptococcus sp. 'group A'; test: Antimicrobial activity against Beta-hemolytic Streptococcus sp. 'group A' assessed as growth inhibition at =<[…] ug/ml by broth microdilution method
# Enterococcus faecium [10] = test: Antimicrobial activity against Enterococcus faecium VanA assessed as growth inhibition at 0.25 ug/ml by broth microdilution method
# Enterococcus faecalis [11] = test: Antimicrobial activity against Enterococcus faecalis VanA assessed as growth inhibition at 0.25 ug/ml by broth microdilution method
# Enterococcus faecalis [12] = test: Antimicrobial activity against Enterococcus faecalis VanB assessed as growth inhibition at 0.25 ug/ml by broth microdilution method
# Enterococcus faecium [13] = test: Antimicrobial activity against Enterococcus faecium VanB assessed as growth inhibition at 0.12 ug/ml by broth microdilution method
# [14] = Antimicrobial activity against Beta-hemolytic Streptococcus sp. 'group C' assessed as growth inhibition at 0.06 ug/ml by broth microdilution method
# Streptococcus [15] = test: Antimicrobial activity against viridans group Streptococcus by broth microdilution method
# [16] = tested on: Streptococcus sp. 'group A'; test: Antimicrobial activity against Beta-hemolytic Streptococcus sp. 'group A' assessed as growth inhibition at 0.12 ug/ml by broth microdilution method
# Staphylococcus [17] = test: Antimicrobial activity against Oxacillin-resistant coagulase-negative Staphylococcus by broth microdilution method
# Staphylococcus aureus [18] = test: Antimicrobial activity against Oxacillin-resistant Staphylococcus aureus assessed as percent resistant isolate by broth microdilution method
# [19] = Antimicrobial activity against Beta-hemolytic Streptococcus sp. 'group C' assessed as growth inhibition at =<[…] ug/ml by broth microdilution method
# [20] = tested on: Streptococcus sp. 'group B'; test: Antimicrobial activity against Beta-hemolytic Streptococcus sp. 'group B' assessed as growth inhibition at 0.25 ug/ml by broth microdilution method
# [21] = tested on: Streptococcus sp. 'group B'; test: Antimicrobial activity against Beta-hemolytic Streptococcus sp. 'group B' assessed as growth inhibition at 0.12 ug/ml by broth microdilution method
# Enterococcus faecalis [22] = test: Antimicrobial activity against Enterococcus faecalis VanB assessed as growth inhibition at 1 ug/ml by broth microdilution method
# [23] = Antimicrobial activity against Beta-hemolytic Streptococcus sp. 'group G' assessed as growth inhibition at =<[…] ug/ml by broth microdilution method
# Enterococcus faecalis [24] = test: Antimicrobial activity against Enterococcus faecalis VanA assessed as growth inhibition at 0.5 ug/ml by broth microdilution method
# Enterococcus faecium [25] = test: Antimicrobial activity against Enterococcus faecium VanB assessed as growth inhibition at 1 ug/ml by broth microdilution method
# Enterococcus faecalis [26] = test: Antimicrobial activity against Enterococcus faecalis VanB assessed as growth inhibition at 0.5 ug/ml by broth microdilution method
# [27] = tested on: Streptococcus sp. 'group B'; test: Antimicrobial activity against Beta-hemolytic Streptococcus sp. 'group B' assessed as growth inhibition at 0.06 ug/ml by broth microdilution method
# Staphylococcus aureus [28] = test: Antimicrobial activity against Oxacillin-susceptible Staphylococcus aureus assessed as percent resistant isolates by broth microdilution method
# Enterococcus faecium [29] = test: Antimicrobial activity against Enterococcus faecium VanB assessed as growth inhibition at 4 ug/ml by broth microdilution method
# [30] = tested on: Streptococcus sp. 'group A'; test: Antimicrobial activity against Beta-hemolytic Streptococcus sp. 'group A' assessed as growth inhibition at 0.06 ug/ml by broth microdilution method
# Staphylococcus aureus [31] = test: Antimicrobial activity against Oxacillin-resistant Staphylococcus aureus by broth microdilution method
# Staphylococcus [32] = test: Antimicrobial activity against Oxacillin-susceptible coagulase-negative Staphylococcus assessed as percent resistant isolate by broth microdilution method
# Enterococcus faecium [33] = test: Antimicrobial activity against Enterococcus faecium VanA assessed as growth inhibition at 4 ug/ml by broth microdilution method
# [34] = Antimicrobial activity against Beta-hemolytic Streptococcus sp. 'group G' assessed as growth inhibition at 0.12 ug/ml by broth microdilution method
# Enterococcus faecalis [35] = test: Antimicrobial activity against Enterococcus faecalis VanB assessed as growth inhibition at 0.12 ug/ml by broth microdilution method
# Enterococcus faecalis [36] = test: Antimicrobial activity against Enterococcus faecalis VanA assessed as growth inhibition at 1 ug/ml by broth microdilution method
# Staphylococcus [37] = test: Antimicrobial activity against Oxacillin-susceptible coagulase-negative Staphylococcus by broth microdilution method
# Staphylococcus [38] = test: Antimicrobial activity against Oxacillin-resistant coagulase-negative Staphylococcus assessed as percent resistant isolate by broth microdilution method
# Staphylococcus [39] = test: Antimicrobial activity against Oxacillin-susceptible coagulase-negative Staphylococcus assessed as percent susceptible isolate by broth microdilution method
# [40] = tested on: Streptococcus sp. 'group B'; test: Antimicrobial activity against Beta-hemolytic Streptococcus sp. 'group B' assessed as growth inhibition at =<[…] ug/ml by broth microdilution method
# [41] = Antimicrobial activity against Beta-hemolytic Streptococcus sp. 'group G' assessed as growth inhibition at 0.06 ug/ml by broth microdilution method
# Streptococcus [42] = test: Antimicrobial activity against viridans group Streptococcus assessed as percent susceptible isolate by broth microdilution method
# Enterococcus faecalis [43] = test: Antimicrobial activity against Enterococcus faecalis VanB assessed as growth inhibition at 2 ug/ml by broth microdilution method
# Enterococcus faecalis [44] = test: Antimicrobial activity against Enterococcus faecalis VanB assessed as growth inhibition at =<[…] ug/ml by broth microdilution method
# Enterococcus faecium [45] = test: Antimicrobial activity against Enterococcus faecium VanA assessed as growth inhibition at =<[…] ug/ml by broth microdilution method
# Streptococcus sp. = test: Antimicrobial activity against Beta-hemolytic Streptococcus sp. Group F assessed as growth inhibition at 0.12 ug/ml by broth microdilution method
# Staphylococcus aureus [46] = test: Antimicrobial activity against Oxacillin-resistant Staphylococcus aureus assessed as percent susceptible isolate by broth microdilution method
# Enterococcus faecalis [47] = test: Antimicrobial activity against Enterococcus faecalis VanA assessed as growth inhibition at 2 ug/ml by broth microdilution method
structure (smiles),measurement,setting,value
CN[C@H](CC(C)C)C(=O)N[C@H]1C(=O)N[C@@H](CC(N)=O)C(=O)N[C@H]2C(=O)N[C@H]3C(=O)N[C@H](C(=O)N[C@H](C(=O)O)c4cc(O)cc(O)c4-c4cc3ccc4O)[C@H](O)c3ccc(c(Cl)c3)Oc3cc2cc(c3O[C@@H]2O[C@H](CO)[C@@H](O)[C@H](O)[C@H]2O[C@H]2C[C@](C)(N)[C@H](O)[C@H](C)O2)Oc2ccc(cc2Cl)[C@H]1O [VANCOMYCIN],inhibition at 2 µg/mL,Enterococcus faecium [1],94%
same,inhibition at 0.5 µg/mL,Enterococcus faecium [2],85.1%
same,inhibition at 4 µg/mL,Enterococcus faecalis [3],14.8%
same,Activity,Staphylococcus aureus [4],>99.9%
same,inhibition at 2 µg/mL,Enterococcus faecium [5],18.3%
same,inhibition at 0.06 µg/mL,Enterococcus faecium [6],56%
same,inhibition at 0.06 µg/mL,Enterococcus faecalis [7],33.3%
same,inhibition (INH),Enterococcus faecium [8],26.1%
same,inhibition (INH),[9],98.8%
same,inhibition at 0.25 µg/mL,Enterococcus faecium [10],3.1%
same,inhibition at 0.25 µg/mL,Enterococcus faecalis [11],3.9%
same,inhibition at 0.25 µg/mL,Enterococcus faecalis [12],70.2%
same,inhibition at 0.12 µg/mL,Enterococcus faecium [13],71.6%
same,inhibition at 0.06 µg/mL,[14],100%
same,MIC50,Streptococcus [15],0.5 µg/mL
same,MIC90,Streptococcus [15],1 µg/mL
same,inhibition at 0.12 µg/mL,[16],> 99.9%
same,MIC50,Staphylococcus [17],1 µg/mL
same,MIC90,Staphylococcus [17],> 2 µg/mL
same,Activity,Staphylococcus aureus [18],0%
same,inhibition (INH),[19],99.4%
same,inhibition at 0.25 µg/mL,[20],100%
same,inhibition at 0.12 µg/mL,[21],99.6%
same,inhibition at 1 µg/mL,Enterococcus faecalis [22],78.6%
same,inhibition (INH),[23],95.6%
same,inhibition at 0.5 µg/mL,Enterococcus faecalis [24],4.3%
same,inhibition at 1 µg/mL,Enterococcus faecium [25],90.3%
same,inhibition at 0.5 µg/mL,Enterococcus faecalis [26],75%
same,inhibition at 0.06 µg/mL,[27],98%
same,Activity,Staphylococcus aureus [28],0%
same,inhibition at 4 µg/mL,Enterococcus faecium [29],97.8%
same,inhibition at 0.06 µg/mL,[30],99.9%
same,MIC50,Staphylococcus aureus [31],1 µg/mL
same,MIC90,Staphylococcus aureus [31],1 µg/mL
same,Activity,Staphylococcus [32],0%
same,inhibition at 4 µg/mL,Enterococcus faecium [33],33.1%
same,inhibition at 0.12 µg/mL,[34],100%
same,inhibition at 0.12 µg/mL,Enterococcus faecalis [35],70.2%
same,inhibition at 1 µg/mL,Enterococcus faecalis [36],4.3%
same,MIC50,Staphylococcus [37],1 µg/mL
same,MIC90,Staphylococcus [37],2 µg/mL
same,Activity,Staphylococcus [38],0%
same,Activity,Staphylococcus [39],100%
same,inhibition (INH),[40],90.3%
same,inhibition at 0.06 µg/mL,[41],99.6%
same,Activity,Streptococcus [42],99.9%
same,inhibition at 2 µg/mL,Enterococcus faecalis [43],85.7%
same,inhibition (INH),Enterococcus faecalis [44],9.5%
same,inhibition (INH),Enterococcus faecium [45],0.1%
same,inhibition at 0.12 µg/mL,Streptococcus sp.,100%
same,Activity,Staphylococcus aureus [46],>99.9%
same,inhibition at 2 µg/mL,Enterococcus faecalis [47],7.4%
